The nature of one data set: in vivo. To be noted: mouse, iv.
The next data set concerns digestive tract. Nature of the data set: Antispastic activity, vegetable carbon test (speed of transit through stomach and intestine) in mice. It is filed as in vivo. To be noted: Mus musculus, ip, read-out: A[…] ED50 (dose which reduces the intestinal transit time of the carbon by 50%), intraperitoneally. An excerpt:
The anti-spastic activity which the present compounds exert on the whole of the digestive tract is also considerable. Measured in mice with the vegetable carbon test (speed of transit through the stomach and intestine) this activity is illustrated in the following table: […]

Another data set deals with guinea-pig gallbladder. Nature of the data set: Anti-CCK activity on guinea-pig gallbladders in vitro (contraction by CCK-8). How it is done: ANTI-CCK ACTIVITY ON GUINEA-PIG GALLBLADDERS IN VITRO A longitudinal strip of guinea-pig gallbladder is placed in a bath for isolated organs in Krebs at a temperature of 32° C. and oxygenated continuously with an oxygen-CO2 mixture (95-[…]). The isometric contractions were detected by means of a force transducer and recorded. […] The results obtained are shown in Table 3 which gives the compounds tested and the IC50 values found which were calculated by the method of regression in a test of at least three experiments for each compound studied.

The test system of the next data set is guinea pig gall bladders. Briefly: Anti-CCK-8 activity on guinea-pig gallbladders in situ (in vivo). To be noted: Cavia porcellus, iv; CCK-8 10 ng/kg i.v.; compound i.v.; read-out: ID50, anti-CCK-8 activity in situ. The protocol:
In order to confirm the evidence of the studies in vitro, several of the more interesting compounds were tested in vivo with the use of guinea-pig gallbladders in situ.
The method used was that described by Ljungberg (Svensk. Farm. Tidskr. 69, 351-354, 1964).
Guinea-pigs having a weight of about 400 g anaesthetised with urethane were used; the substances being tested were administered intravenously (i.v.) into the jugular vein.
The responses of the gallbladder to the substances being tested were detected by means of a force transducer and recorded by means of a microdynamometer. 10 ng/kg of CCK 8 were chosen as the optimum contracting dose. The antagonistic compounds tested were administered in increasing doses so as to enable the calculation of an ID50 value, that is the dose (in mg/kg i.v.) having a 50% inhibiting effect against contractions induced by 10 ng/kg i.v. of CCK-8.

The test system of the next data set is colon of rabbits. Nature of the data set: Antispastic activity in the colon of rabbits stimulated with CCK-8. Set-up: Antispastic activity in colon, EXPERIMENT 1 / Antispastic activity in colon, EXPERIMENT 2: unit not given here. To be noted: CCK 100 ng/kg. The class given is in vivo, rabbit. How it is done:
The abdomen of anaesthetised rabbit is cut open to display the tranverse colon. A small balloon full of water is inserted at an established point and connected to a pressure transducer by means of a polyethylene cannula filled with H2 O.
The optimum sensitivity being fixed in relation to the physiological contractions, the products were administered through the femeral vein. Contractions were induced by the administration of 100 ng/kg of CCK.

The subject of data set [1] is pancreatitis in mice induced experimentally by cerulein. Nature of the data set: Pancreatitis induced by cerulein in mice. It is filed as in vivo. To be noted: for ED50: Mus musculus, ip, cerulein, mice. The protocol:
Adult male mice received six injections of cerulein (Takus) (50 mcg/kg) each hour for six hours.
The compound was administered 30 minutes before each administration of cerulein. Nine hours after the beginning of the treatment, the blood was taken from the rectro-orbitory plexus after anaesthesia with ether, the animals were killed and the pancreas removed and weighed.

Data set [2] deals with pancreatitis in rats induced experimentally by taurocholate. Nature of the data set: Pancreatitis induced by sodium taurocolate in rats. It is filed as in vivo. The note with it: for ED50: Rattus norvegicus, ip, taurocholate, rats. The protocol: The products under examination were administered intraperitoneally (i.p.) 30 minutes before the operation and 3 hours after the operation. Six hours after the laparatomy the blood was removed from the retro-orbitory plexus after anaesthesia with ether, the animals were killed and the pancreas was removed and weighed. The activity of the serum amylase was determined by the method described above.

The test system of data set [3] is pancreatic adenocarcinoma. Nature of the data set: Inhibiting action on rate of growth of a pancreatic adenocarcinoma induced by CCK-8 in hamsters. The class given is in vivo. An excerpt: (§1) Male hamsters were innoculated in the cheek pouch with a suspension of 1×10^5 tumour cells of a pancreatic adenocarcinoma.
(§2) Fifteen days after this treatment the animals were killed and the normal pancreas and the pancreatic tumours initiated in the cheek pouch were removed and weighed.
(§3) The DNA was extracted and measured by conventional methods.
(§4) The results obtained are given in Table 11 in which they are expressed as average values±S.E.

Another data set has as its system normal pancreatic cells. Nature of the data set: Action on growth rate of normal pancreas induced by CCK-8 in hamsters. It is filed as in vivo.
Source text: as §1, §2, §3, §4

Setting [4] is: CCK-8 8 mcg/kg three times a day.

Values after ≈ are worked out from the molar mass of the structure shown. Like-named read-outs stand apart in the source and are kept apart here.

`CCCCCN(CCOCC)C(=O)C(CCC(=O)O)NC(=O)c1ccc(Cl)c(Cl)c1` (centres unmarked) [Compound 2] came in with an LD50 in the data set “in vivo” of 338 mg/kg. Also, the selectivity ratio in the data set “in vivo” stood at 3380. For the same compound, the ED50 in the data set on digestive tract was found to be 14 mg/kg; in the data set on guinea pig gall bladders, 0.1 mg/kg; in the data set with colon of rabbits (Oryctolagus cuniculus, iv), 1.47 mg/kg; in [1] (read-out: ED50 (inhibition of weight increase)) it was 4.6 mg/kg; in [1] (read-out: ED50, inhibition of weight increase of the pancreas), 6.3 mg/kg; in data set [2] (read-out: ED50, inhibition of amylase increase) it was 8.6 mg/kg. Further, in data set [2] (read-out: ED50, inhibition of weight increase), the ED50 amounted to 10.1 mg/kg. The compound also registered a half-maximal inhibitory concentration (IC50) in the data set with guinea-pig gallbladder (Cavia porcellus, CCK-8 10 ng/ml, in vitro) of 0.1 mg/L (≈ 0.217 µM). For the same compound, the “50% antagonising concentration relative to that of the specific agonist” value in the data set with guinea-pig gallbladder (vs CCK-8 10 ng/ml) is reported as “about 10 times”. In addition, the “Antispastic activity in colon, EXPERIMENT 1” value with colon of rabbits (0.3 mg/kg i.v.) is -9.8; in the data set on colon of rabbits (1 mg/kg i.v.), -45.1; in the data set on colon of rabbits (3 mg/kg i.v.), -88.0. Further, the “Antispastic activity in colon, EXPERIMENT 2” value with colon of rabbits (0.3 mg/kg i.v.) was -27.2; with colon of rabbits (1 mg/kg i.v.), -39.8; with colon of rabbits (3 mg/kg i.v.), -92.4. The “AMYLASE IN THE SERUM” value in data set [1] (5 mg/kg ip + cerulein) stood at 54.7 U/ml; in data set [1] (7.5 mg/kg ip + cerulein) it was 21.7 U/ml; in data set [1] (10 mg/kg ip + cerulein), 11.8 U/ml; in data set [2] (5 mg/kg i.p. + taurocholate), 10.6 U/ml; in data set [2] (10 mg/kg i.p. + taurocholate) it was 8.9 U/ml; in data set [2] (20 mg/kg i.p. + taurocholate), 7.7 U/ml. For the same compound, the “INHIBITION OF WEIGHT INCREASE” value in data set [1] (5 mg/kg ip + cerulein) came to 55.2%; in [1] (7.5 mg/kg ip + cerulein), 88.3%; in [1] (10 mg/kg ip + cerulein), 98.3%; in data set [2] (5 mg/kg i.p. + taurocholate) it was 44.4%; in [2] (10 mg/kg i.p. + taurocholate), 63.0%; in data set [2] (20 mg/kg i.p. + taurocholate), 74.1%. Besides, the figures for the “INHIBITION OF WEIGHT INCREASE (pancreas)” value in [1] (5 mg/kg ip + cerulein), in data set [1] (7.5 mg/kg ip + cerulein) and in data set [1] (10 mg/kg ip + cerulein) were 24.5%, 61.2% and 89.8%, respectively. Besides, the “RATIO WEIGHT OF PANCREAS / ANIMAL WEIGHT” value turned out to be 0.54% in data set [1] (5 mg/kg ip + cerulein); 0.45% in [1] (7.5 mg/kg ip + cerulein); 0.38% in [1] (10 mg/kg ip + cerulein); 0.50% in data set [2] (5 mg/kg i.p. + taurocholate); 0.45% in data set [2] (10 mg/kg i.p. + taurocholate); 0.42% in data set [2] (20 mg/kg i.p. + taurocholate). Further, the “INHIBITION OF AMYLASE INCREASE” value in data set [2] (5 mg/kg i.p. + taurocholate) came out at 28.2%; in data set [2] (10 mg/kg i.p. + taurocholate) it was 71.8%; in data set [2] (20 mg/kg i.p. + taurocholate) it was 102.6%.
On to “CCK-8: biologically active component of the hormone cholecystokinin [reference compound]”, for which, in data set [3] (setting [4]), the “TUMORAL DNA” value is 0.7 and the “WEIGHT OF THE PANCREATIC CARCINOMA” value was determined as 163.1 ± 4.7 mg. The “effect on growth of a pancreatic adenocarcinoma” value in data set [3] (in words) is reported as “stimulates the growth of a pancreatic adenocacinoma”. In the data set on normal pancreatic cells (setting [4]), the “PANCREATIC DNA” value was 1.5 ± 0.06 mg and the “WEIGHT OF THE PANCREAS” value worked out at 634.8 ± 20.8 mg. The “effect on normal pancreatic cells” value in the data set on normal pancreatic cells (in words) was “has a trophic action on normal pancreatic cells”.

As usually defined, the LD50 is the dose at which mortality reaches 50%. By IC50 is commonly meant the point on the concentration scale where inhibition reaches its midpoint.
